Species: Rattus norvegicus
Experiment: DrugMatrix - Regimen: Daily Repeat
Type: toxicity, organism-based, Sprague-Dawley
Design: regimen Daily Repeat, gender Male, age 6-8 weeks
Settings: in vivo, sc, 120 h, route subcutaneous, time 5 day, vehicle 100 % SALINE; for ABSOLUTE BASOPHIL / ABSOLUTE EOSINOPHIL / ABSOLUTE LYMPHOCYTE / ABSOLUTE MONOCYTE / ABSOLUTE SEGMENTED NEUTROPHIL / BASOPHIL / EOSINOPHIL / ERYTHROCYTE COUNT / HEMATOCRIT / HEMOGLOBIN / LEUKOCYTE COUNT / LYMPHOCYTE / MEAN CORPUSCULAR HEMOGLOBIN / MEAN CORPUSCULAR HEMOGLOBIN CONCENTRATION / MEAN CORPUSCULAR VOLUME / MONOCYTE / NEUTROPHIL / NUCLEATED RED BLOOD CELLS / PLATELET COUNT: tissue Blood; for ALANINE AMINOTRANSFERASE / ALBUMIN / ALKALINE PHOSPHATASE / ASPARTATE AMINOTRANSFERASE / BLOOD UREA NITROGEN / CARBON DIOXIDE / CHLORIDE / CHOLESTEROL / CREATINE PHOSPHOKINASE / CREATININE / GLUCOSE / LACTATE DEHYDROGENASE / LIPASE / PHOSPHORUS / POTASSIUM / SODIUM / TOTAL BILIRUBIN / TOTAL PROTEIN / URIC ACID: tissue Plasma

SMILES: CC(N)Cc1c[nH]c2ccc(OCc3cccs3)cc12 (centres undefined) [BW-723C86]
- ABSOLUTE BASOPHIL (0 mg/kg, dose level Control): 0 CELLS/uL
- ABSOLUTE EOSINOPHIL (0 mg/kg, dose level Control): 0 CELLS/uL
- ABSOLUTE LYMPHOCYTE (0 mg/kg, dose level Control): 5956.67 CELLS/uL
- ABSOLUTE MONOCYTE (0 mg/kg, dose level Control): 0 CELLS/uL
- ABSOLUTE SEGMENTED NEUTROPHIL (0 mg/kg, dose level Control): 510 CELLS/uL
- BASOPHIL (0 mg/kg, dose level Control): 0%
- EOSINOPHIL (0 mg/kg, dose level Control): 0%
- ERYTHROCYTE COUNT (0 mg/kg, dose level Control): 5.39 x10E6/uL
- HEMATOCRIT (0 mg/kg, dose level Control): 32.5%
- HEMOGLOBIN (0 mg/kg, dose level Control): 12.47 G/DL
- LEUKOCYTE COUNT (0 mg/kg, dose level Control): 6.47 x10E3/uL
- LYMPHOCYTE (0 mg/kg, dose level Control): 92%
- MEAN CORPUSCULAR HEMOGLOBIN (0 mg/kg, dose level Control): 23.13 pg
- MEAN CORPUSCULAR HEMOGLOBIN CONCENTRATION (0 mg/kg, dose level Control): 38.37 G/DL
- MEAN CORPUSCULAR VOLUME (0 mg/kg, dose level Control): 60.3 fL
- MONOCYTE (0 mg/kg, dose level Control): 0%
- NEUTROPHIL (0 mg/kg, dose level Control): 8%
- NUCLEATED RED BLOOD CELLS (0 mg/kg, dose level Control): 0.33 /100WBC
- PLATELET COUNT (0 mg/kg, dose level Control): 888 x10E3/uL
- ALANINE AMINOTRANSFERASE (0 mg/kg, dose level Control): 43.67 u/L
- ALBUMIN (0 mg/kg, dose level Control): 4.37 G/DL
- ALKALINE PHOSPHATASE (0 mg/kg, dose level Control): 356 u/L
- ASPARTATE AMINOTRANSFERASE (0 mg/kg, dose level Control): 74 u/L
- BLOOD UREA NITROGEN (0 mg/kg, dose level Control): 11 mg/dL
- CARBON DIOXIDE (0 mg/kg, dose level Control): 32.33 mmol/L
- CHLORIDE (0 mg/kg, dose level Control): 103.33 MEQ/L
- CHOLESTEROL (0 mg/kg, dose level Control): 70.67 mg/dL
- CREATINE PHOSPHOKINASE (0 mg/kg, dose level Control): 195.33 u/L
- CREATININE (0 mg/kg, dose level Control): 0.16 mg/dL
- GLUCOSE (0 mg/kg, dose level Control): 161.67 mg/dL
- LACTATE DEHYDROGENASE (0 mg/kg, dose level Control): 84 u/L
- LIPASE (0 mg/kg, dose level Control): 9 u/L
- PHOSPHORUS (0 mg/kg, dose level Control): 12.57 mg/dL
- POTASSIUM (0 mg/kg, dose level Control): 6.87 MEQ/L
- SODIUM (0 mg/kg, dose level Control): 147.6 MEQ/L
- TOTAL BILIRUBIN (0 mg/kg, dose level Control): 0.13 mg/dL
- TOTAL PROTEIN (0 mg/kg, dose level Control): 6.27 G/DL
- URIC ACID (0 mg/kg, dose level Control): 1.67 mg/dL
- ABSOLUTE BASOPHIL (10 mg/kg, dose level Low): 0 CELLS/uL
- ABSOLUTE EOSINOPHIL (10 mg/kg, dose level Low): 0 CELLS/uL
- ABSOLUTE LYMPHOCYTE (10 mg/kg, dose level Low): 5627 CELLS/uL
- ABSOLUTE MONOCYTE (10 mg/kg, dose level Low): 73.33 CELLS/uL
- ABSOLUTE SEGMENTED NEUTROPHIL (10 mg/kg, dose level Low): 866.33 CELLS/uL
- BASOPHIL (10 mg/kg, dose level Low): 0%
- EOSINOPHIL (10 mg/kg, dose level Low): 0%
- ERYTHROCYTE COUNT (10 mg/kg, dose level Low): 5.18 x10E6/uL
- HEMATOCRIT (10 mg/kg, dose level Low): 31.03%
- HEMOGLOBIN (10 mg/kg, dose level Low): 12 G/DL
- LEUKOCYTE COUNT (10 mg/kg, dose level Low): 6.57 x10E3/uL
- LYMPHOCYTE (10 mg/kg, dose level Low): 85.33%
- MEAN CORPUSCULAR HEMOGLOBIN (10 mg/kg, dose level Low): 23.2 pg
- MEAN CORPUSCULAR HEMOGLOBIN CONCENTRATION (10 mg/kg, dose level Low): 38.67 G/DL
- MEAN CORPUSCULAR VOLUME (10 mg/kg, dose level Low): 60 fL
- MONOCYTE (10 mg/kg, dose level Low): 1%
- NEUTROPHIL (10 mg/kg, dose level Low): 13.67%
- NUCLEATED RED BLOOD CELLS (10 mg/kg, dose level Low): 0.33 /100WBC
- PLATELET COUNT (10 mg/kg, dose level Low): 1156.33 x10E3/uL
- ALANINE AMINOTRANSFERASE (10 mg/kg, dose level Low): 53.33 u/L
- ALBUMIN (10 mg/kg, dose level Low): 4.03 G/DL
- ALKALINE PHOSPHATASE (10 mg/kg, dose level Low): 406.67 u/L
- ASPARTATE AMINOTRANSFERASE (10 mg/kg, dose level Low): 85.67 u/L
- BLOOD UREA NITROGEN (10 mg/kg, dose level Low): 14.67 mg/dL
- CARBON DIOXIDE (10 mg/kg, dose level Low): 33.33 mmol/L
- CHLORIDE (10 mg/kg, dose level Low): 103.33 MEQ/L
- CHOLESTEROL (10 mg/kg, dose level Low): 90.33 mg/dL
- CREATINE PHOSPHOKINASE (10 mg/kg, dose level Low): 200.33 u/L
- CREATININE (10 mg/kg, dose level Low): 0.18 mg/dL
- GLUCOSE (10 mg/kg, dose level Low): 150.33 mg/dL
- LACTATE DEHYDROGENASE (10 mg/kg, dose level Low): 93 u/L
- LIPASE (10 mg/kg, dose level Low): 8 u/L
- PHOSPHORUS (10 mg/kg, dose level Low): 13.1 mg/dL
- POTASSIUM (10 mg/kg, dose level Low): 7.02 MEQ/L
- SODIUM (10 mg/kg, dose level Low): 148.43 MEQ/L
- TOTAL BILIRUBIN (10 mg/kg, dose level Low): 0.1 mg/dL
- TOTAL PROTEIN (10 mg/kg, dose level Low): 6.43 G/DL
- URIC ACID (10 mg/kg, dose level Low): 1.67 mg/dL
- ABSOLUTE BASOPHIL (50 mg/kg, dose level High): 0 CELLS/uL
- ABSOLUTE EOSINOPHIL (50 mg/kg, dose level High): 0 CELLS/uL
- ABSOLUTE LYMPHOCYTE (50 mg/kg, dose level High): 7706.33 CELLS/uL
- ABSOLUTE MONOCYTE (50 mg/kg, dose level High): 71.33 CELLS/uL
- ABSOLUTE SEGMENTED NEUTROPHIL (50 mg/kg, dose level High): 3055.67 CELLS/uL
- BASOPHIL (50 mg/kg, dose level High): 0%
- EOSINOPHIL (50 mg/kg, dose level High): 0%
- ERYTHROCYTE COUNT (50 mg/kg, dose level High): 5.21 x10E6/uL
- HEMATOCRIT (50 mg/kg, dose level High): 30.4%
- HEMOGLOBIN (50 mg/kg, dose level High): 11.63 G/DL
- LEUKOCYTE COUNT (50 mg/kg, dose level High): 10.83 x10E3/uL
- LYMPHOCYTE (50 mg/kg, dose level High): 71%
- MEAN CORPUSCULAR HEMOGLOBIN (50 mg/kg, dose level High): 22.4 pg
- MEAN CORPUSCULAR HEMOGLOBIN CONCENTRATION (50 mg/kg, dose level High): 38.3 G/DL
- MEAN CORPUSCULAR VOLUME (50 mg/kg, dose level High): 58.4 fL
- MONOCYTE (50 mg/kg, dose level High): 0.67%
- NEUTROPHIL (50 mg/kg, dose level High): 28.33%
- NUCLEATED RED BLOOD CELLS (50 mg/kg, dose level High): 0.33 /100WBC
- PLATELET COUNT (50 mg/kg, dose level High): 1382.67 x10E3/uL
- ALANINE AMINOTRANSFERASE (50 mg/kg, dose level High): 47.33 u/L
- ALBUMIN (50 mg/kg, dose level High): 3.33 G/DL
- ALKALINE PHOSPHATASE (50 mg/kg, dose level High): 343 u/L
- ASPARTATE AMINOTRANSFERASE (50 mg/kg, dose level High): 83.67 u/L
- BLOOD UREA NITROGEN (50 mg/kg, dose level High): 15 mg/dL
- CARBON DIOXIDE (50 mg/kg, dose level High): 28 mmol/L
- CHLORIDE (50 mg/kg, dose level High): 104.33 MEQ/L
- CHOLESTEROL (50 mg/kg, dose level High): 78.33 mg/dL
- CREATINE PHOSPHOKINASE (50 mg/kg, dose level High): 168.33 u/L
- CREATININE (50 mg/kg, dose level High): 0.18 mg/dL
- GLUCOSE (50 mg/kg, dose level High): 174 mg/dL
- LACTATE DEHYDROGENASE (50 mg/kg, dose level High): 96.33 u/L
- LIPASE (50 mg/kg, dose level High): 8.33 u/L
- PHOSPHORUS (50 mg/kg, dose level High): 13.63 mg/dL
- POTASSIUM (50 mg/kg, dose level High): 6.41 MEQ/L
- SODIUM (50 mg/kg, dose level High): 147.13 MEQ/L
- TOTAL BILIRUBIN (50 mg/kg, dose level High): 0.1 mg/dL
- TOTAL PROTEIN (50 mg/kg, dose level High): 5.87 G/DL
- URIC ACID (50 mg/kg, dose level High): 2.1 mg/dL
